PMC9234962, “Optimization of Peptide Linker-Based Fluorescent Ligands for the Histamine H1 Receptor” (Journal of Medicinal Chemistry, 2022)
Square brackets hold non-standard residues; d marks the D form. Side chains are listed from the residue outwards. Peptide text beside a SMILES is read from it. * marks the point of attachment. X1 = O=C(COc1ccc(/C=C/C2=[N+]3C(=Cc4ccc(-c5cccs5)n4[B-]3(F)F)C=C2)cc1)*; Propanoyl(3-Pip(4-O-2-BnPh)) = O=C(CCN1CCC(Oc2ccccc2Cc2ccccc2)CC1)*; Ahx = NCCCCCC(=O)O; βAla = NCCC(=O)O

Molecular target: Nluc-H1R (Homo sapiens, UniProt P35367)
Sequence (P35367 whole entry): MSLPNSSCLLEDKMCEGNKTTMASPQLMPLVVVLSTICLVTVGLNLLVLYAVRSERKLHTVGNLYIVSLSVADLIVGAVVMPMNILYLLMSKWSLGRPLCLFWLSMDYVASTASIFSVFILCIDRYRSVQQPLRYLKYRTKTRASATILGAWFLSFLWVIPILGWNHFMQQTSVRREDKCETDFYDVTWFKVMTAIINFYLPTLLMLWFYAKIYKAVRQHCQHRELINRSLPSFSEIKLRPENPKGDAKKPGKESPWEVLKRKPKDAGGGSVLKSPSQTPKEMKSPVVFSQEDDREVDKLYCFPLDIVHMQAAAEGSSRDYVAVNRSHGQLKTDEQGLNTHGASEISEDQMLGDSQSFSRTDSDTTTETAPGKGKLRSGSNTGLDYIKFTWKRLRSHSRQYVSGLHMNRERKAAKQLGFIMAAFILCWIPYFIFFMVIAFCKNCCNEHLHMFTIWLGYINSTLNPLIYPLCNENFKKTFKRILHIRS
Assay: NanoBRET saturation binding assay on Nluc-H1R expressing HEK293T cells
Design: expressed in transfected cells
Conditions: saturation binding curves, whole HEK293T cells; for pKD: non-specific with 10 μM mepyramine, mean ± SEM
Text: Total and non-specific saturation binding curves from NanoBRET saturation binding assay were fitted simultaneously using eq 1: [drawing 4] 1 where Bmax is the maximal specific binding, [B] is the concentration of fluorescent ligand in nM, KD is the equilibrium dissociation constant in nM, M is the slope of the non-specific component, and C is the intercept with the Y axis.

Row | SMILES | Kd [nM] | pKD
1 | CC(C)[C@H](NC(=O)CCN1CCC(Oc2ccccc2Cc2ccccc2)CC1)C(=O)N[C@@H](C)C(=O)N[C@@H](CC(N)=O)C(=O)NCCC(=O)N[C@@H](CCCCNC(=O)COc1ccc(/C=C/C2=[N+]3C(=Cc4ccc(-c5cccs5)n4[B-]3(F)F)C=C2)cc1)C(N)=O [Compound 31b, (S)-N1-(3-(((S)-1-Amino-6-(2-(4-((E)-2-(5,5-difluoro-7-(thiophen-2-yl)-5H-5λ^4,6λ^4-dipyrrolo[1,2-c:2’,1’-f][1,3,2]diazaborinin-3-yl)vinyl)phenoxy)acetamido)-1-oxohexan-2-yl)amino)-3-oxopropyl)-2-((S)-2-((S)-2-(3-(4-(2-benz-ylphenoxy)piperidin-1-yl)propanamido)-3-methylbutanamido)propanamido)succinamide] ({Propanoyl(3-Pip(4-O-2-BnPh))}-VAN[βAla]K(X1)-NH2) | 5 | 8.34 ± 0.09
2 | C[C@@H](O)[C@H](NC(=O)CCN1CCC(Oc2ccccc2Cc2ccccc2)CC1)C(=O)N[C@@H](CO)C(=O)N[C@@H](CC(N)=O)C(=O)NCCC(=O)N[C@@H](CCCCNC(=O)COc1ccc(/C=C/C2=[N+]3C(=Cc4ccc(-c5cccs5)n4[B-]3(F)F)C=C2)cc1)C(N)=O [Compound 31c, (S)-N1-(3-(((S)-1-Amino-6-(2-(4-((E)-2-(5,5-difluoro-7-(thiophen-2-yl)-5H-5λ^4,6λ^4-dipyrrolo[1,2-c:2’,1’-f][1,3,2]diazaborinin-3-yl)vinyl)phenoxy)acetamido)-1-oxohexan-2-yl)amino)-3-oxopropyl)-2-((S)-2-((2S,3R)-2-(3-(4-(2-benzylphenoxy)piperidin-1-yl)propanamido)-3-hydroxy-butanamido)-3-hydroxypropanamido)succinamide] ({Propanoyl(3-Pip(4-O-2-BnPh))}-TSN[βAla]K(X1)-NH2) | 6 | 8.20 ± 0.07
3 | C[C@H](NC(=O)[C@@H](NC(=O)CCN1CCC(Oc2ccccc2Cc2ccccc2)CC1)[C@@H](C)O)C(=O)N[C@@H](CC(N)=O)C(=O)NCCC(=O)N[C@@H](CCCCNC(=O)COc1ccc(/C=C/C2=[N+]3C(=Cc4ccc(-c5cccs5)n4[B-]3(F)F)C=C2)cc1)C(N)=O [Compound 31d, (S)-N1-(3-(((S)-1-Amino-6-(2-(4-((E)-2-(5,5-difluoro-7-(thiophen-2-yl)-5H-5λ^4,6λ^4-dipyrrolo[1,2-c:2’,1’-f][1,3,2]diazaborinin-3-yl)vinyl)phenoxy)acetamido)-1-oxohexan-2-yl)amino)-3-oxopropyl)-2-((S)-2-((2S,3R)-2-(3-(4-(2-benzylphenoxy)piperidin-1-yl)propanamido)-3-hydroxybutanamido)propanamido)succinamide] ({Propanoyl(3-Pip(4-O-2-BnPh))}-TAN[βAla]K(X1)-NH2) | 5 | 8.29 ± 0.07
4 | CC(C)[C@H](NC(=O)CCN1CCC(Oc2ccccc2Cc2ccccc2)CC1)C(=O)N[C@@H](CO)C(=O)N[C@@H](Cc1ccc(O)cc1)C(=O)NCCC(=O)N[C@@H](CCCCNC(=O)COc1ccc(/C=C/C2=[N+]3C(=Cc4ccc(-c5cccs5)n4[B-]3(F)F)C=C2)cc1)C(N)=O [Compound 31e, (S)-2-((6S,9S,12S)-16-(4-(2-Benzylphenoxy)piperidin-1-yl)-6-(4-hydroxybenzyl)-9-(hydroxymethyl)-12-isopropyl-5,8,11,14-tetraoxo-4,7,10,13-tetraazahexadecanamido)-6-(2-(4-((E)-2-(5,5-difluoro-7-(thiophen-2-yl)-5H-5λ^4,6λ^4-dipyrrolo[1,2-c:2’,1’-f][1,3,2]diazaborinin-3-yl)vinyl)phenoxy)acetamido)hexanamide] ({Propanoyl(3-Pip(4-O-2-BnPh))}-VSY[βAla]K(X1)-NH2) | 16 | 7.80 ± 0.11
5 | CC(C)[C@H](NC(=O)CCN1CCC(Oc2ccccc2Cc2ccccc2)CC1)C(=O)N[C@@H](C)C(=O)N[C@@H](Cc1ccc(O)cc1)C(=O)NCCC(=O)N[C@@H](CCCCNC(=O)COc1ccc(/C=C/C2=[N+]3C(=Cc4ccc(-c5cccs5)n4[B-]3(F)F)C=C2)cc1)C(N)=O [Compound 31f, (S)-2-((6S,9S,12S)-16-(4-(2-Benzylphenoxy)piperidin-1-yl)-6-(4-hydroxybenzyl)-12-isopropyl-9-methyl-5,8,11,14-tetraoxo-4,7,10,13-tetraazahexadecanamido)-6-(2-(4-((E)-2-(5,5-difluoro-7-(thiophen-2-yl)-5H-5λ^4,6λ^4-di-pyrrolo[1,2-c:2’,1’-f][1,3,2]diazaborinin-3-yl)vinyl)phenoxy)acetamido)hexanamide] ({Propanoyl(3-Pip(4-O-2-BnPh))}-VAY[βAla]K(X1)-NH2) | 11 | 7.96 ± 0.11
6 | C[C@@H](O)[C@H](NC(=O)CCN1CCC(Oc2ccccc2Cc2ccccc2)CC1)C(=O)N[C@@H](CO)C(=O)N[C@@H](Cc1ccc(O)cc1)C(=O)NCCC(=O)N[C@@H](CCCCNC(=O)COc1ccc(/C=C/C2=[N+]3C(=Cc4ccc(-c5cccs5)n4[B-]3(F)F)C=C2)cc1)C(N)=O [Compound 31g, (S)-2-((6S,9S,12S)-16-(4-(2-Benzylphenoxy)piperidin-1-yl)-6-(4-hydroxybenzyl)-12-((R)-1-hydroxyethyl)-9-(hydroxymethyl)-5,8,11,14-tetraoxo-4,7,10,13-tetraazahexadecanamido)-6-(2-(4-((E)-2-(5,5-difluoro-7-(thiophen-2-yl)-5H-5λ^4,6λ^4-dipyrrolo[1,2-c:2’,1’-f][1,3,2]diazaborinin-3-yl)vinyl)phenoxy)acetamido)hexanamide] ({Propanoyl(3-Pip(4-O-2-BnPh))}-TSY[βAla]K(X1)-NH2) | 7 | 8.16 ± 0.12
7 | C[C@H](NC(=O)[C@@H](NC(=O)CCN1CCC(Oc2ccccc2Cc2ccccc2)CC1)[C@@H](C)O)C(=O)N[C@@H](Cc1ccc(O)cc1)C(=O)NCCC(=O)N[C@@H](CCCCNC(=O)COc1ccc(/C=C/C2=[N+]3C(=Cc4ccc(-c5cccs5)n4[B-]3(F)F)C=C2)cc1)C(N)=O [Compound 31h, (S)-2-((6S,9S,12S)-16-(4-(2-Benzylphenoxy)piperidin-1-yl)-6-(4-hydroxybenzyl)-12-((R)-1-hydroxyethyl)-9-methyl-5,8,11,14-tetraoxo-4,7,10,13-tetraazahexadecanamido)-6-(2-(4-((E)-2-(5,5-Difluoro-7-(thiophen-2-yl)-5H-5λ^4,6λ^4-dipyrrolo[1,2-c:2’,1’-f][1,3,2]diazaborinin-3-yl)vinyl)phenoxy)acetamido)hexanamide] ({Propanoyl(3-Pip(4-O-2-BnPh))}-TAY[βAla]K(X1)-NH2) | 6 | 8.23 ± 0.17
8 | CC[C@H](C)[C@H](NC(=O)CCN1CCC(Oc2ccccc2Cc2ccccc2)CC1)C(=O)N[C@@H](CO)C(=O)N[C@@H](CC(N)=O)C(=O)NCCC(=O)N[C@@H](CCCCNC(=O)COc1ccc(/C=C/C2=[N+]3C(=Cc4ccc(-c5cccs5)n4[B-]3(F)F)C=C2)cc1)C(N)=O [Compound 31i, (S)-N1-(3-(((S)-1-Amino-6-(2-(4-((E)-2-(5,5-difluoro-7-(thiophen-2-yl)-5H-5λ^4,6λ^4-dipyrrolo[1,2-c:2’,1’-f][1,3,2]diazaborinin-3-yl)vinyl)phenoxy)acetamido)-1-oxohexan-2-yl)amino)-3-oxopropyl)-2-((S)-2-((2S,3S)-2-(3-(4-(2-benzylphenoxy)piperidin-1-yl)propanamido)-3-methylpentanamido)-3-hydroxypropanamido)succinamide] ({Propanoyl(3-Pip(4-O-2-BnPh))}-ISN[βAla]K(X1)-NH2) | 5 | 8.33 ± 0.09
9 | CC(C)C[C@H](NC(=O)CCN1CCC(Oc2ccccc2Cc2ccccc2)CC1)C(=O)N[C@@H](CO)C(=O)N[C@@H](CC(N)=O)C(=O)NCCC(=O)N[C@@H](CCCCNC(=O)COc1ccc(/C=C/C2=[N+]3C(=Cc4ccc(-c5cccs5)n4[B-]3(F)F)C=C2)cc1)C(N)=O [Compound 31j, (S)-N1-(3-(((S)-1-Amino-6-(2-(4-((E)-2-(5,5-difluoro-7-(thiophen-2-yl)-5H-5λ^4,6λ^4-dipyrrolo[1,2-c:2’,1’-f][1,3,2]diazaborinin-3-yl)vinyl)phenoxy)acetamido)-1-oxohexan-2-yl)amino)-3-oxopropyl)-2-((S)-2-((S)-2-(3-(4-(2-benzylphenoxy)piperidin-1-yl)propanamido)-4-methylpentanamido)-3-hydroxypropanamido)succinamide] ({Propanoyl(3-Pip(4-O-2-BnPh))}-LSN[βAla]K(X1)-NH2) | 6 | 8.23 ± 0.06
10 | CC(C)[C@H](NC(=O)CCN1CCC(Oc2ccccc2Cc2ccccc2)CC1)C(=O)N[C@@H](CO)C(=O)N[C@@H](CC(N)=O)C(=O)NCCC(=O)N[C@@H](CCCCNC(=O)CCCCCNC(=O)COc1ccc(/C=C/C2=[N+]3C(=Cc4ccc(-c5cccs5)n4[B-]3(F)F)C=C2)cc1)C(N)=O [Compound 38a, (S)-N^1-(3-(((S)-1-Amino-6-(6-(2-(4-((E)-2-(5,5-difluoro-7-(thiophen-2-yl)-5H-4λ^4,5λ^4-dipyrrolo[1,2-c:2’,1’-f][1,3,2]diazaborinin-3-yl)vinyl)phenoxy)acetamido)hexanamido)-1-oxohexan-2-yl)amino)-3-oxopropyl)-2-((S)-2-((S)-2-(3-(4-(2-benzylphenoxy)piperidin-1-yl)propanamido)-3-methylbutanamido)-3-hydroxypropanamido)succinamide] ({Propanoyl(3-Pip(4-O-2-BnPh))}-VSN[βAla]K([Ahx-X1])-NH2) | 18 | 7.74 ± 0.06
